Organism: Rattus norvegicus
Experiment: Open TG-GATES - Regimen: Single
Format: toxicity, organism-based, Sprague-Dawley
Set-up: regimen Single, gender Male, age 6 weeks
Conditions: in vivo, po, 100 mg/kg, route gavage, dose level Low; for APTT / Bas / Eos / Fbg / Hb / Ht / Lym / MCH / MCHC / MCV / Mono / Neu / PT / Plat / RBC / Ret / WBC: tissue Blood; for KIDNEY_L / KIDNEY_R / KIDNEY_TOTAL: tissue Kidney; for LIVER: tissue Liver; for A/G / ALP / ALT / AST / BUN / CRE / Ca / Cl / DBIL / GLC / IP / K / LDH / Na / PL / RALB / TBIL / TC / TG / TP / gamma-GTP: tissue Plasma

Compound: COC1=CC(=O)C[C@@H](C)[C@]12Oc1c(Cl)c(OC)cc(OC)c1C2=O [GRISEOFULVIN]
- TERMINAL_BW (3 h): 211.4 g
- APTT (3 h): 18.7 s
- Bas (3 h): 0%
- Eos (3 h): 0.8%
- Fbg (3 h): 213 mg/dL
- Hb (3 h): 13 g/dL
- Ht (3 h): 37.9%
- Lym (3 h): 77%
- MCH (3 h): 21.6 pg
- MCHC (3 h): 34.3%
- MCV (3 h): 63.2 fL
- Mono (3 h): 2.8%
- Neu (3 h): 19%
- PT (3 h): 13 s
- Plat (3 h): 121.7 x10_4/uL
- RBC (3 h): 600 x10_4/ul
- Ret (3 h): 8%
- WBC (3 h): 116.5 x10_2/uL
- KIDNEY_L (3 h): 0.9 g
- KIDNEY_R (3 h): 1 g
- KIDNEY_TOTAL (3 h): 1.9 g
- LIVER (3 h): 9.4 g
- A/G (3 h): 1.7
- ALP (3 h): 1005.8 IU/L
- ALT (3 h): 37.8 IU/L
- AST (3 h): 66.8 IU/L
- BUN (3 h): 10.2 mg/dL
- CRE (3 h): 0.3 mg/dL
- Ca (3 h): 10.9 mg/dL
- Cl (3 h): 104.2 meq/L
- DBIL (3 h): 0.2 mg/dL
- GLC (3 h): 181.4 mg/dL
- IP (3 h): 8.8 mg/dL
- K (3 h): 3.7 meq/L
- LDH (3 h): 130.4 IU/L
- Na (3 h): 141.6 meq/L
- PL (3 h): 164 mg/dL
- RALB (3 h): 3.4 g/dL
- TBIL (3 h): 0.3 mg/dL
- TC (3 h): 80.6 mg/dL
- TG (3 h): 131.4 mg/dL
- TP (3 h): 5.4 g/dL
- gamma-GTP (3 h): 0.8 IU/L
- TERMINAL_BW (6 h): 209.8 g
- APTT (6 h): 17.8 s
- Bas (6 h): 0%
- Eos (6 h): 1%
- Fbg (6 h): 218 mg/dL
- Hb (6 h): 13.3 g/dL
- Ht (6 h): 38.8%
- Lym (6 h): 75.6%
- MCH (6 h): 22 pg
- MCHC (6 h): 34.3%
- MCV (6 h): 64.2 fL
- Mono (6 h): 3%
- Neu (6 h): 20%
- PT (6 h): 13 s
- Plat (6 h): 135.7 x10_4/uL
- RBC (6 h): 604.8 x10_4/ul
- Ret (6 h): 8%
- WBC (6 h): 100.3 x10_2/uL
- KIDNEY_L (6 h): 0.9 g
- KIDNEY_R (6 h): 0.9 g
- KIDNEY_TOTAL (6 h): 1.9 g
- LIVER (6 h): 9.1 g
- A/G (6 h): 1.8
- ALP (6 h): 1063.4 IU/L
- ALT (6 h): 38.6 IU/L
- AST (6 h): 70.8 IU/L
- BUN (6 h): 10 mg/dL
- CRE (6 h): 0.4 mg/dL
- Ca (6 h): 10.8 mg/dL
- Cl (6 h): 103.4 meq/L
- DBIL (6 h): 0.094 mg/dL
- GLC (6 h): 200.4 mg/dL
- IP (6 h): 9.7 mg/dL
- K (6 h): 4 meq/L
- LDH (6 h): 179.4 IU/L
- Na (6 h): 141 meq/L
- PL (6 h): 148.4 mg/dL
- RALB (6 h): 3.4 g/dL
- TBIL (6 h): 0.2 mg/dL
- TC (6 h): 80.8 mg/dL
- TG (6 h): 48.6 mg/dL
- TP (6 h): 5.4 g/dL
- gamma-GTP (6 h): 1.6 IU/L
- TERMINAL_BW (9 h): 207.5 g
- APTT (9 h): 18.1 s
- Bas (9 h): 0%
- Eos (9 h): 1%
- Fbg (9 h): 222.6 mg/dL
- Hb (9 h): 13.2 g/dL
- Ht (9 h): 38.8%
- Lym (9 h): 74.8%
- MCH (9 h): 21.4 pg
- MCHC (9 h): 34.1%
- MCV (9 h): 62.9 fL
- Mono (9 h): 2.2%
- Neu (9 h): 22%
- PT (9 h): 13.3 s
- Plat (9 h): 123.9 x10_4/uL
- RBC (9 h): 617.8 x10_4/ul
- Ret (9 h): 7.5%
- WBC (9 h): 96 x10_2/uL
- KIDNEY_L (9 h): 1 g
- KIDNEY_R (9 h): 0.9 g
- KIDNEY_TOTAL (9 h): 1.9 g
- LIVER (9 h): 8.6 g
- A/G (9 h): 1.7
- ALP (9 h): 994.6 IU/L
- ALT (9 h): 34.4 IU/L
- AST (9 h): 64.2 IU/L
- BUN (9 h): 9.8 mg/dL
- CRE (9 h): 0.3 mg/dL
- Ca (9 h): 10.4 mg/dL
- Cl (9 h): 103.6 meq/L
- DBIL (9 h): 0.078 mg/dL
- GLC (9 h): 199.6 mg/dL
- IP (9 h): 10.3 mg/dL
- K (9 h): 3.9 meq/L
- LDH (9 h): 101 IU/L
- Na (9 h): 142 meq/L
- PL (9 h): 138.2 mg/dL
- RALB (9 h): 3.4 g/dL
- TBIL (9 h): 0.1 mg/dL
- TC (9 h): 72.6 mg/dL
- TG (9 h): 48 mg/dL
- TP (9 h): 5.4 g/dL
- gamma-GTP (9 h): 1.2 IU/L
- TERMINAL_BW (24 h): 224.8 g
- APTT (24 h): 19.6 s
- Bas (24 h): 0%
- Eos (24 h): 1%
- Fbg (24 h): 222.4 mg/dL
- Hb (24 h): 13.4 g/dL
- Ht (24 h): 40.6%
- Lym (24 h): 77.6%
- MCH (24 h): 21.5 pg
- MCHC (24 h): 33.1%
- MCV (24 h): 64.8 fL
- Mono (24 h): 3.2%
- Neu (24 h): 17.4%
- PT (24 h): 13.1 s
- Plat (24 h): 117.6 x10_4/uL
- RBC (24 h): 626.6 x10_4/ul
- Ret (24 h): 7.2%
- WBC (24 h): 107.9 x10_2/uL
- KIDNEY_L (24 h): 1 g
- KIDNEY_R (24 h): 1 g
- KIDNEY_TOTAL (24 h): 2 g
- LIVER (24 h): 10.8 g
- A/G (24 h): 1.5
- ALP (24 h): 926.8 IU/L
- ALT (24 h): 41.8 IU/L
- AST (24 h): 69.4 IU/L
- BUN (24 h): 14.4 mg/dL
- CRE (24 h): 0.4 mg/dL
- Ca (24 h): 11 mg/dL
- Cl (24 h): 103.4 meq/L
- DBIL (24 h): 0.1 mg/dL
- GLC (24 h): 215.8 mg/dL
- IP (24 h): 8.5 mg/dL
- K (24 h): 4.2 meq/L
- LDH (24 h): 146.6 IU/L
- Na (24 h): 141.8 meq/L
- PL (24 h): 136.4 mg/dL
- RALB (24 h): 3.3 g/dL
- TBIL (24 h): 0.2 mg/dL
- TC (24 h): 71 mg/dL
- TG (24 h): 95 mg/dL
- TP (24 h): 5.5 g/dL
- gamma-GTP (24 h): 1.4 IU/L
